Test results from patent publication US12077555B2, “STAT degraders and uses thereof” (Kymera Therapeutics, Inc., priority 2019, dated 2024).

target: STAT3 (Homo sapiens, UniProt P40763); assay: STAT3 HiBiT degradation assay in transfected A549 cells; assay type: cell-based; parameters: expressed in transfected cells; host or cells: A549; details: A549, 24 h; read-out: STAT3 HiBiT A549 degradation 24 h: Average external-Abs DC50
In short: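 Transfected A549 cells (~2000/well) plated 24 h, then treated 24 h at 37 °C, 5% CO2 with a 3-fold, 10-point compound dilution. HiBiT lytic luminescence read after 10 min at room temperature; remaining STAT3 normalized to negative and positive controls, four-parameter fit. DC50 binned A <0.01, B 0.01–0.1, C 0.1–1.0, D >1.0 µM.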

Chain of STAT3 (P40763 whole entry): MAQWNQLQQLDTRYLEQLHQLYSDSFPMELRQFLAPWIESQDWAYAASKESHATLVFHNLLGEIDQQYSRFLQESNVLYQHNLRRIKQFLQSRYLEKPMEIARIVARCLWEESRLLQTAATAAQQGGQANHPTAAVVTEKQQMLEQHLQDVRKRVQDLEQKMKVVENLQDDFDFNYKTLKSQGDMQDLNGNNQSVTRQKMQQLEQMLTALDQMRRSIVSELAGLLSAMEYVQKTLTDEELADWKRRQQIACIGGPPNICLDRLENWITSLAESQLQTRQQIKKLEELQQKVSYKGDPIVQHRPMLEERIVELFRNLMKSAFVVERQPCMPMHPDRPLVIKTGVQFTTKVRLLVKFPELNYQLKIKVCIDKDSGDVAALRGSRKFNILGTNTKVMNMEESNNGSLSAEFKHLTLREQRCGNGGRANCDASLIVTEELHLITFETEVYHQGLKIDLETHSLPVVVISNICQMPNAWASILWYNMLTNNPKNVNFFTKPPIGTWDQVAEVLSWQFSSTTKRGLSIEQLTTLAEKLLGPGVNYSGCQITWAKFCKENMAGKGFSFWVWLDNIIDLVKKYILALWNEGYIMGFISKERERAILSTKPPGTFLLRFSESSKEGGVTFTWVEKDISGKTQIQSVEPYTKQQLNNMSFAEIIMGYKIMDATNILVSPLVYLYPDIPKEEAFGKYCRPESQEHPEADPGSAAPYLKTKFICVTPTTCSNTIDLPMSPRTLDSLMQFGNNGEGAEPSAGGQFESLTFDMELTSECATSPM

| Structure (SMILES) | DC50 [nM] |
| --- | --- |
| Cc1ncsc1-c1ccc([C@H](C)NC(=O)[C@@H]2C[C@@H](O)CN2C(=O)[C@@H](NC(=O)CCCCCc2cccc(NC(=O)[C@H](CCC(N)=O)NC(=O)[C@@H]3Cc4cccc5c4N3C(=O)[C@@H](NC(=O)c3cc4cc(C(=O)P(=O)(O)O)ccc4[nH]3)CC5)c2F)C(C)(C)C)cc1 [Compound I-250, 2-[[(2S,11S)-2-[[(1S)-3-carbamoyl-1-[[2-fluoro-3-(5-[[(2S)-1-[(2S,4R)-4-hydroxy-2-[[(1S)-1-[4-(4-methyl-1,3-thiazol-5-yl)phenyl]ethyl]carbamoyl]pyrrolidin-1-yl]-3,3-dimethyl-1-oxobutan-2-yl]carbamoyl]pentyl)phenyl]carbamoyl]propyl]carbamoyl]-12-oxo-1-azatricyclo[6.4.1.0^[4,13]]trideca-4(13),5,7-trien-11-yl]carbamoyl]-1H-indole-5-carbonylphosphonic acid] | 10 to 100 |
| Cc1ccc(OC[C@H](CCC(N)=O)NC(=O)[C@@H]2Cc3cccc4c3N2C(=O)[C@@H](NC(=O)c2cc3cc(C(=O)P(=O)(O)O)ccc3[nH]2)CC4)c(F)c1CCCCCC(=O)N[C@H](C(=O)N1C[C@H](O)C[C@H]1C(=O)N[C@@H](C)c1ccc(-c2scnc2C)cc1)C(C)(C)C [Compound I-251] | < 10 |
| Cc1ncsc1-c1ccc([C@H](C)NC(=O)[C@@H]2C[C@@H](O)CN2C(=O)[C@@H](NC(=O)CCCCCc2c(F)ccc(OC[C@H](CCC(N)=O)NC(=O)[C@@H]3Cc4cccc5c4N3C(=O)[C@@H](NC(=O)c3cc4cc(C(=O)P(=O)(O)O)ccc4[nH]3)CC5)c2F)C(C)(C)C)cc1 [Compound I-252] | < 10 |
| Cc1ncsc1-c1ccc([C@H](C)NC(=O)[C@@H]2C[C@@H](O)CN2C(=O)[C@@H](NC(=O)CCCc2cccc(OC[C@H](CCC(N)=O)NC(=O)[C@@H]3Cc4cccc5c4N3C(=O)[C@@H](NC(=O)c3cc4cc(C(=O)P(=O)(O)O)ccc4[nH]3)CC5)c2Cl)C(C)(C)C)cc1 [Compound I-253] | < 10 |
| Cc1ncsc1-c1ccc([C@H](C)NC(=O)[C@@H]2C[C@@H](O)CC2C(=O)[C@@H](NC(=O)OCCCCc2cccc(N(C)CC(CCC(N)=O)NC(=O)[C@@H]3Cc4cccc5c4N3C(=O)[C@@H](NC(=O)c3cc4cc(C(=O)P(=O)(O)O)ccc4[nH]3)CC5)c2F)C(C)(C)C)cc1 (stereo partly shown) [Compound I-254] | 100 to 1000 |
| Cc1ncsc1-c1ccc([C@H](C)NC(=O)[C@@H]2C[C@@H](O)CN2C(=O)[C@@H](NC(=O)Cc2cccc(OC[C@H](CCC(N)=O)NC(=O)[C@@H]3Cc4cccc5c4N3C(=O)[C@@H](NC(=O)c3cc4cc(C(=O)P(=O)(O)O)ccc4[nH]3)CC5)c2)C(C)(C)C)cc1 [Compound I-256, 2-[[(2S,11S)-2-[[(2S)-4-carbamoyl-1-[3-([[(2S)-1-[(2S,4R)-4-hydroxy-2-[[(1S)-1-[4-(4-methyl-1,3-thiazol-5-yl)phenyl]ethyl]carbamoyl]pyrrolidin-1-yl]-3,3-dimethyl-1-oxobutan-2-yl]carbamoyl]methyl)phenoxy]butan-2-yl]carbamoyl]-12-oxo-1-azatricyclo[6.4.1.0^[4,13]]trideca-4(13),5,7-trien-11-yl]carbamoyl]-1H-indole-5-carbonylphosphonic acid] | > 1000 |

same assay, conditions: read-out: STAT3 HiBiT A549 degradation 24 h: Average external-Abs DC50; A549, 24 h

| Structure (SMILES) | DC50 [nM] |
| --- | --- |
| Cn1c(=O)n(C(CCC(N)=O)C(=O)O)c2ccc(C[C@H]3CC[C@@H](CC(=O)N4CC[C@H]5CC[C@@H](C(=O)N[C@@H](CCC(N)=O)C(=O)NC(c6ccccc6)c6ccccc6)N5C(=O)[C@@H](NC(=O)c5cc6cc(C(=O)P(=O)(O)O)ccc6[nH]5)C4)CC3)cc21 (stereo partly drawn) [Compound I-255, 4-carbamoyl-2-(3-methyl-2-oxo-5-[[(1s,4s)-4-[2-[(5S,8S,10aR)-8-[[(1S)-3-carbamoyl-1-(diphenylmethylcarbamoyl)propyl]carbamoyl]-6-oxo-5-[5-(phosphonocarbonyl)-1H-indole-2-amido]-octahydropyrrolo[1,2-a][1,5]diazocin-3-yl]-2-oxoethyl]cyclohexyl]methyl]-1,3-benzodiazol-1-yl)butanoic acid] | > 1000 |
